Assay [1] deals with MSH2-proficient HEC59 cells with chromosome 2 transfer (HEC59 chr.2). Briefly: Cell viability (MTS) assay, MSH2-proficient cells. The settings on record: for IC50: 24 h exposure; for induction of cell death: MSH2-proficient cells. The assay is classed as cell-based, human. Here is the method: (§1) Cells proficient and deficient in MSH2 were exposed to increasing concentrations of the drugs and cell survival determined in an MTS assay. This assay is based on the mitochondrial activity of living cells that reduces the tetrazolium product (MTS) into a formazan product that can be spectrophotometrically analyzed at OD490.
(§2) Cell Viability assays. HEC59 cells and their isogenic counterpart with chromosome 2 transfer were grown in standard growth media of DMEM-F12+10% FBS. Cells were plated in 96 well plates at an appropriate concentration in 100 μl media and incubated overnight. Media was replaced with fresh media containing drug and allowed to incubate for 24 hrs at indicated concentrations. Untreated cells received fresh media containing 0.1% DMSO. One solution reagent (CellTiter 96(r) AQueous One Solution) is added to existing media (20 μl/well) and allowed to incubate 3-4 hrs. A plate reader was used to record the absorbance at 490 nm.
(§3) The CellTiter 96® AQueous One Solution Cell Proliferation Assay® is a colorimetric method for determining the number of viable cells in proliferation, cytotoxicity or chemosensitivity assays. The CellTiter 96® AQueous One Solution Reagent contains a tetrazolium compound [3-(4,5-dimethylthiazol-2-yl)-5-(3-carboxymethoxyphenyl)-2-(4-sulfophenyl)-2H-tetrazolium, inner salt; MTS] and an electron coupling reagent (phenazine ethosulfate; PES). PES has enhanced chemical stability, which allows it to be combined with MTS to form a stable solution. The quantity of formazan product as measured by the amount of 490 nm absorbance is directly proportional to the number of living cells in culture.
(§4) Dose-dependent response to nineteen increasing concentrations of the respective compound was determined, and analyzed for IC50 values using GraphPad Prism 4™. Each compound was analyzed in triplicates.

Assay [2] concerns MSH2-deficient HEC59 cells. In words: Cell viability (MTS) assay, MSH2-deficient cells. The assay is classed as cell-based, human. To be noted: for IC50 / MSH2 dependence of cell death response (words): 24 h exposure; for Fold difference: IC50 MSH2-deficient vs MSH2-proficient cells, 24 h; for MSH2 dependence of cell death response (words): MSH2-deficient vs -proficient cells; for induction of cell death: MSH2-deficient cells. The procedure: as §1, §2, §3, §4

Assay [3] deals with MSH2-deficient HEC59 cells. The settings on record: 48-72 hours after first exposure; cited from earlier work.
Another assay has as its system A2780cis cells. Briefly: MTS assay, platinum resistant ovarian cancer cells. The settings on record: for cell killing: 10 uM cisplatin, 20 uM rescinnamine, lisinopril. The assay is classed as cell-based. The procedure: (§5) A2780 is a cisplatinum-sensitive ovarian cancer cell line, […] its isogenic, but cisplatinum-resistant counterpart. Shown are average and standard deviations of a minimum of 3 individual experiments. Results were normalized to the untreated control. FIG. 5: MTS assays of platinum sensitive (A2780) and resistant (A2780cis) cells in the presence of 10 uM cisplatinum and increasing concentrations of rescinnamine. FIG. 6: MTS assay of A2780 and A2780cis ovarian cancer cells, untreated, treated with 10 uM cisplatin, 20 uM rescinnamine and lisinopril.
For orientation: Tetrazolium assays rely on reduction of a dye to a coloured formazan, in cell work by metabolically active cells.

The subject of another assay is A2780 cells. Briefly: MTS assay, platinum sensitive ovarian cancer cells. To be noted: for cell killing: 10 uM cisplatin, 20 uM rescinnamine, lisinopril. The class given is cell-based. The procedure: as §5
The next assay relates to RKO oxa cells. In words: MTS assay, oxaliplatin insensitive colorectal cancer cells. The class given is cell-based. The source says: FIG. 7: MTS assay of colorectal cancer cells sensitive (RKO) and insensitive (RKO oxa) to oxaliplatin, treated with oxaliplatin, rescinnamine and combination.
Assay [4] concerns MSH2/6-dependent cell death. In words: Caspase-3-dependent cell death assay. The class given is cell-based.
Setting [5] is: Homo sapiens, MTS, read-out: IC50 MSH2-proficient.
[6] abbreviates: Homo sapiens, read-out: IC50 in MSH2-proficient cells.
Setting [7] is: Homo sapiens, MTS, read-out: IC50 MSH2-deficient.
Setting [8] is: Homo sapiens, read-out: IC50 in MSH2-deficient cells.
The mark [9] stands for this setting: in the presence of 10 uM cisplatinum.

Like-named read-outs stand apart in the source and are kept apart here.

For `COC(=O)[C@H]1[C@H]2C[C@@H]3c4[nH]c5cc(OC)ccc5c4CCN3C[C@H]2C[C@@H](OC(=O)c2ccc(OC)c(OC)c2)[C@@H]1OC` [3,4-dimethoxy benzoyl, 3,4-Dimethoxybenzoyl reserpine], the IC50 – broadly, the midpoint of a concentration-inhibition curve – in assay [1] (setting [5]) worked out at 66 µM; in assay [1] (setting [6]) it was 66 µM; in assay [2] (setting [7]), 85 µM; in assay [2] (setting [8]), 85 µM. In addition, the Fold difference in assay [2] is reported as 1.3. Moreover, the “MSH2 dependence of cell death response (words)” value (shortened to “MSH2 dependence”) in assay [2] was “significant MSH2-dependent cell death response”.
Consider `COC(=O)[C@H]1[C@H]2C[C@@H]3c4[nH]c5cc(OC)ccc5c4CCN3C[C@H]2C[C@@H](OC(=O)c2cc(OC)cc(OC)c2)[C@@H]1OC` [3,5-dimethoxy benzoyl, 3,5-Dimethoxybenzoyl reserpine], for which the figures for the half-maximal inhibitory concentration (IC50) in assay [1] (setting [5]) and in assay [2] (setting [7]) were 38 µM and 36 µM, respectively. Also, the Fold difference in assay [2] is reported as 0.95.
Regarding `COC(=O)[C@H]1[C@H]2C[C@@H]3c4[nH]c5cc(OC)ccc5c4CCN3C[C@H]2C[C@@H](OC(=O)c2cccc(OC)c2)[C@@H]1OC` [3-methoxy benzoyl, 3-Methoxybenzoyl reserpine], the IC50 in assay [1] (setting [5]) worked out at 88 µM; in assay [2] (setting [7]) it was 83 µM. This compound also yielded a Fold difference in assay [2] of 0.94.
The corresponding values for `COC(=O)[C@H]1[C@H]2C[C@@H]3c4[nH]c5cc(OC)ccc5c4CCN3C[C@H]2C[C@@H](OC(=O)c2ccc(OC)cc2)[C@@H]1OC` [4-methoxy benzoyl, 4-Methoxybenzoyl reserpine] are 67 µM, 68 µM and 1.01.
Consider `COC(=O)[C@H]1[C@H]2C[C@@H]3c4[nH]c5cc(OC)ccc5c4CCN3C[C@H]2C[C@@H](OC(=O)c2ccccc2)[C@@H]1OC` [MJG-6-41, Benzoyl resperine], for which the IC50 in assay [1] (setting [5]) was 132 µM; in assay [2] (setting [7]), 110 µM. Moreover, the Fold difference in assay [2] was found to be 0.83.
As for `COC(=O)[C@H]1[C@H]2C[C@@H]3c4[nH]c5cc(OC)ccc5c4CCN3C[C@H]2C[C@@H](O)[C@@H]1OC` [Methyl Reserpate, Methyl reserpate], the “induction of cell death” value in assay [1] and in assay [2] was “only weakly induces cell death” in each case. Also, the “MSH2 dependence” value in assay [2] is “no preference for either cell line”.
In the case of `COC(=O)[C@H]1[C@H]2C[C@@H]3c4[nH]c5cc(OC)ccc5c4CCN3C[C@H]2C[C@@H](OC(=O)/C=C/c2ccccc2)[C@@H]1OC` [cinnamoyl reserpine, Cinnamyl reserpine], the IC50 in assay [1] (setting [5]) was determined as 130 µM; in assay [1] (setting [6]), 130 µM; in assay [2] (setting [7]), 150 µM; in assay [2] (setting [8]), 150 µM. The same compound had a Fold difference in assay [2] of 1.2. Besides, the “MSH2 dependence” value in assay [2] was “independent of functional MSH2”.
As to `N.N.[Cl][Pt][Cl]` [cisplatin], the IC50 in assay [1] (MTS, read-out: IC50 MSH2-proficient) was found to be 47 µM. In assay [3], the “increase in resistance in MSH2-deficient cells, late response” value is listed as “two- to four-fold increase in resistance”. For the same compound, the IC50 in assay [2] (MTS, read-out: IC50 MSH2-deficient) worked out at 75 µM. Besides, in assay [2], the Fold difference amounted to 1.6 and the “MSH2 dependence” value is listed as “only a weak difference”.
Take `COC(=O)[C@H]1[C@H]2C[C@@H]3c4[nH]c5ccccc5c4CCN3C[C@H]2C[C@@H](OC(=O)c2cc(OC)c(OC)c(OC)c2)[C@@H]1OC` [deserpidine]: the IC50 in assay [1] (setting [5]) was 48 µM; in assay [1] (setting [6]), 49 µM; in assay [2] (setting [7]), 59 µM; in assay [2] (setting [8]), 56 µM. The compound further had a Fold difference in assay [2] of 1.2. For the same compound, the “MSH2 dependence” value in assay [2] is reported as “no significant specificity for the presence of MSH2”.
In the case of `NCCCC[C@H](N[C@@H](CCc1ccccc1)C(=O)O)C(=O)N1CCC[C@H]1C(=O)O` [lisinopril], the “cell killing” value in the assay on A2780cis cells and in the assay with A2780 cells was “does not show the same effect” each time.
As for `COC(=O)[C@H]1[C@H]2C[C@@H]3c4[nH]c5cc(OC)ccc5c4CCN3C[C@H]2C[C@@H](OC(=O)c2ccc3c(c2)OCO3)[C@@H]1OC` [methylendioxy-benzoyl, 3,4-Methylenedioxy benzoyl reserpine], the 50% inhibitory concentration (IC50) in assay [1] (setting [5]) was 51 µM; in assay [1] (setting [6]), 51 µM; in assay [2] (setting [7]), 36 µM; in assay [2] (setting [8]) it was 36 µM. The Fold difference in assay [2] is 0.71. Moreover, the “MSH2 dependence” value in assay [2] is reported as “MSH2-deficient cells show a higher sensitivity”.
With `COC(=O)[C@H]1[C@H]2C[C@@H]3c4[nH]c5cc(OC)ccc5c4CCN3C[C@H]2C[C@@H](OC(=O)/C=C/c2cc(OC)c(OC)c(OC)c2)[C@@H]1OC` [rescinnamine], the “MSH2-dependent induction of cell death relative to reserpine” value in assay [1] is reported as “roughly 2 fold”. The IC50 in assay [1] (setting [5]) worked out at 39 µM; in assay [1] (setting [6]), 39 µM; in assay [2] (setting [7]), 87 µM. Further, the entries for the “cell killing” value in the assay with A2780cis cells and in the assay on A2780 cells were “overcoming cisplatinum resistance” and “more effective in sensitive ovarian cancer cells than cisplatinum”, respectively. Further, the “cell death with increasing concentrations of rescinnamine” value with A2780cis cells (setting [9]) is “concentration-dependent, significant cell death”; in the assay with A2780 cells (setting [9]) it was “concentration-dependent, significant cell death”. The Fold difference in assay [2] is given as 2.6. Further, the “MSH2 dependence” value in assay [2] is “robust MSH2-dependent cell death response”. In addition, the “overcoming oxaliplatin resistance” value with RKO oxa cells was “overcomes oxaliplatin resistance, albeit not to the same extent as cisplatinum resistance”. Moreover, the “induction of MSH2/6-dependent cell death” value in assay [4] is on record as “induces the targeted, MSH2/6-dependent cell death”.
Consider `COC(=O)[C@H]1[C@H]2C[C@@H]3c4[nH]c5cc(OC)ccc5c4CCN3C[C@H]2C[C@@H](OC(=O)c2cc(OC)c(OC)c(OC)c2)[C@@H]1OC` [reserpine], for which the IC50 in assay [1] (setting [5]) was found to be 61 µM; in assay [1] (setting [6]) it was 61 µM; in assay [2] (setting [7]) it was 93 µM. In assay [2], this compound returned a Fold difference of 1.5. In addition, the entries for the “MSH2 dependence” value in assay [2] and in assay [2] (listed as Reserpine) were “robust MSH2-dependent cell death response” and “significant increase in resistance”, respectively.
In the case of Evodiamine, the “induction of cell death” value in assay [1] and in assay [2] was “no significant cytotoxic effect” throughout.

These data come from patent publication US8486957B2, “Chemotherapeutic for inducing an MSH2-dependent apoptotic pathway” (Wake Forest University Health Sciences, priority 2007, dated 2013).
